Assay results as given in ChEMBL document CHEMBL3991601, “The target landscape of clinical kinase drugs” (Science, 2017).
The source made the active and inactive calls.

How the values were obtained:
[1] = molecular target: T1, Tyrosine-protein kinase Mer (Homo sapiens, UniProt Q12866)
T1 sequence (Q12866 whole entry): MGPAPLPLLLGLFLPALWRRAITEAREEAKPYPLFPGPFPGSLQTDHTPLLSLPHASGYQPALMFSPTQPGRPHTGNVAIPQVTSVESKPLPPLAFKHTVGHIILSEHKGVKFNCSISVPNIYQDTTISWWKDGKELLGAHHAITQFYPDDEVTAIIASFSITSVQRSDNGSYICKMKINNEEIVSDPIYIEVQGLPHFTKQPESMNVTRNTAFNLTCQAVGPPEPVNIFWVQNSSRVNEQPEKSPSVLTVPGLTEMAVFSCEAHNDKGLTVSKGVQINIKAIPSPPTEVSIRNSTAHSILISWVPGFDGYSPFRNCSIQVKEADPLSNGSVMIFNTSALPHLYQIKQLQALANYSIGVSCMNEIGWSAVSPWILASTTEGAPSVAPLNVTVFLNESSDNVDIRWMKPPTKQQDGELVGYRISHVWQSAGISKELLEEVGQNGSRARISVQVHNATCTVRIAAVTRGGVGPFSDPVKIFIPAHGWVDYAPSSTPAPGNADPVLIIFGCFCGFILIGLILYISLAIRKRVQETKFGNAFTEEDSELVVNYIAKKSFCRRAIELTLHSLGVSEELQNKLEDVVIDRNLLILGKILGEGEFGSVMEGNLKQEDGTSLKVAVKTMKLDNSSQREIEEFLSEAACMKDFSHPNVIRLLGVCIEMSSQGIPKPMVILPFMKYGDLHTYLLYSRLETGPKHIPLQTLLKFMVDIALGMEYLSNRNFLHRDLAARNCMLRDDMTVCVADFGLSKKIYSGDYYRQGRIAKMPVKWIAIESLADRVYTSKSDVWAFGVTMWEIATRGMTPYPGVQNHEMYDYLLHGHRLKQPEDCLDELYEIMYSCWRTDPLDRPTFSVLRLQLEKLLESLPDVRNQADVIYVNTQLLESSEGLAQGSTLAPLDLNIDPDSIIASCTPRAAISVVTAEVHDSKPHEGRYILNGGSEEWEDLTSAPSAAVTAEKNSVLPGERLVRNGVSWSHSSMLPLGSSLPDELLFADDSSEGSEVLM

[2] = molecular target: T2, UMP-CMP kinase (Homo sapiens, UniProt P30085)
T2 sequence (P30085 whole entry): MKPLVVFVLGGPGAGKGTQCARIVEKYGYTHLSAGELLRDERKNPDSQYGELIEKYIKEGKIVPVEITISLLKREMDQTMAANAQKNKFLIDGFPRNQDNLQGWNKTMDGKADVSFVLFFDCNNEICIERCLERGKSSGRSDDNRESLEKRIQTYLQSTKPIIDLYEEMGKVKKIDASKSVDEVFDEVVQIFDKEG

[3] = molecular target: MAP kinase-activated protein kinase 3 (Homo sapiens, UniProt Q16644)
MAP kinase-activated protein kinase 3, sequence (Q16644 whole entry): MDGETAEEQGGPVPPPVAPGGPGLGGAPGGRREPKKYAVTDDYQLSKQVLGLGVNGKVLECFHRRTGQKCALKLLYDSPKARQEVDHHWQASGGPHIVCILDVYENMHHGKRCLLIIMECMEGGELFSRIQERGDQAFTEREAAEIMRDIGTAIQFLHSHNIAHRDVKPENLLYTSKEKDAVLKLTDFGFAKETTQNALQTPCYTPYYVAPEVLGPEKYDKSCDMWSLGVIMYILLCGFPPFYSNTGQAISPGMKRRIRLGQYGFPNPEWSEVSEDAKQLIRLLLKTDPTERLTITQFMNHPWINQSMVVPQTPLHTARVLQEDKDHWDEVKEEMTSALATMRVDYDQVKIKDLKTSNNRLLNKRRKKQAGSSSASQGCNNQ

[4] = molecular target: Serine/threonine-protein kinase PLK1 (Homo sapiens, UniProt P53350)
Serine/threonine-protein kinase PLK1, sequence (P53350 whole entry): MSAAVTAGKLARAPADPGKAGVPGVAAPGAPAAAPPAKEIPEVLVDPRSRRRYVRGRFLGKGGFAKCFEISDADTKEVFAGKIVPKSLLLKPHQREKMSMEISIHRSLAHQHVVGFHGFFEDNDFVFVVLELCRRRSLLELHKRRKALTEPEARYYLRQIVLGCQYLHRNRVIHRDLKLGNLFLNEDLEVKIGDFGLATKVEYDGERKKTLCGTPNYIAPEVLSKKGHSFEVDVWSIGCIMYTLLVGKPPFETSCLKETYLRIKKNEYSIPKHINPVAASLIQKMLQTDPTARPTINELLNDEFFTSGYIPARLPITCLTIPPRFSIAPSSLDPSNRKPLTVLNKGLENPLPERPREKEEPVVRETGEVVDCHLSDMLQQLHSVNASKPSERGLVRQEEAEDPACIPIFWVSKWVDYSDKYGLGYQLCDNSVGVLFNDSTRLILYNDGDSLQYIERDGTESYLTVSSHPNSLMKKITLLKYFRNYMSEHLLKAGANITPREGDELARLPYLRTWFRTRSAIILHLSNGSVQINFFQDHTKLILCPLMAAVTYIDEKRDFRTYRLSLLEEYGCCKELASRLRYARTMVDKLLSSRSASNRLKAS

[5] = molecular target: T3, Dual specificity mitogen-activated protein kinase kinase 4 (Homo sapiens, UniProt P45985)
T3 sequence (P45985 whole entry): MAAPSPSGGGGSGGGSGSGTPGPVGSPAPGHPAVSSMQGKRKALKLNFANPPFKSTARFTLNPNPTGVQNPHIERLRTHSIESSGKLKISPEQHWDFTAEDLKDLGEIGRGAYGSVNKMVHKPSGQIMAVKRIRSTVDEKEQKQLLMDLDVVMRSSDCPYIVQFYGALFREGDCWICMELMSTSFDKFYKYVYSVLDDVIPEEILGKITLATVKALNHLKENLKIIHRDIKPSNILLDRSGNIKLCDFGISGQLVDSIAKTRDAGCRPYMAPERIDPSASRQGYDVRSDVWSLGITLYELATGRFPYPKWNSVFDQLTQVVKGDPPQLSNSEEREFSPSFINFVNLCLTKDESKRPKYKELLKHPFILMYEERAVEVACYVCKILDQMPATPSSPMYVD

[6] = molecular target: T4, Protein kinase C zeta type (Homo sapiens, UniProt Q05513)
T4 sequence (Q05513 whole entry): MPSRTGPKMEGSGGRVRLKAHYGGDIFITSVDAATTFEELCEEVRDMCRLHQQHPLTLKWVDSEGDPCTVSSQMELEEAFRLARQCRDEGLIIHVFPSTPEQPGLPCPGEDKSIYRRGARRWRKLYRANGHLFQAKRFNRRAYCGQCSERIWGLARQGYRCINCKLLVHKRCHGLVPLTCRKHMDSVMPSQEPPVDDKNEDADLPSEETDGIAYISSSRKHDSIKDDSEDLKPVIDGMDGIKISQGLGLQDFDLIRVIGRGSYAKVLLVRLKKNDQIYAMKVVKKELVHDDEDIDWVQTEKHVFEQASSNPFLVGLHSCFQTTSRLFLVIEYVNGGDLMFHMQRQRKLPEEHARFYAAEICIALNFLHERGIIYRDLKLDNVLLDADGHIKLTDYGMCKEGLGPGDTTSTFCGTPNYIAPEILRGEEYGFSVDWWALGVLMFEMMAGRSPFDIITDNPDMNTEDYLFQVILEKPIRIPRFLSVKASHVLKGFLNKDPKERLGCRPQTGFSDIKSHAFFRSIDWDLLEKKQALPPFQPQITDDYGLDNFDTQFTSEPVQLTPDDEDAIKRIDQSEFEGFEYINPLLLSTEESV

[7] = molecular target: Serine/threonine-protein kinase Nek7 (Homo sapiens, UniProt Q8TDX7)
Serine/threonine-protein kinase Nek7, sequence (Q8TDX7 whole entry): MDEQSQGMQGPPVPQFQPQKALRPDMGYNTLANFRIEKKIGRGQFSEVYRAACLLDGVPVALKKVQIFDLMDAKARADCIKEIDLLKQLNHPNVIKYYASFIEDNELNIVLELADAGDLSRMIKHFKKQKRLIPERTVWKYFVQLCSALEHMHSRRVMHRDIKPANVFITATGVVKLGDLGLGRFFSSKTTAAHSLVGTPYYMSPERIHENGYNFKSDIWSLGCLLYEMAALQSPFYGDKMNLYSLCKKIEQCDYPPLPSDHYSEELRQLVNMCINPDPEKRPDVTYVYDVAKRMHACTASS

Measured: Kd
Also: in the data inactive means no Kd found up to 30 µM.

Cn1cnc2c(F)c(Nc3ccc(Br)cc3F)c(C(=O)NOCCO)cc21 [BINIMETINIB]
inactive: [1] > 30 µM | [2] > 30 µM | [3] > 30 µM | [4] > 30 µM | [5] > 30 µM

COc1cc2ncnc(Oc3cccc(NC(=O)Nc4cc(C(C)(C)C(F)(F)F)on4)c3)c2cc1OC [CEP-32496]
inactive: [6] > 30 µM | [1] > 30 µM | [2] > 30 µM | [3] > 30 µM | [4] > 30 µM | [5] > 30 µM

CC(C)(C)c1nc(-c2cccc(NS(=O)(=O)c3c(F)cccc3F)c2F)c(-c2ccnc(N)n2)s1 [DABRAFENIB]
inactive: [6] > 30 µM | [1] > 30 µM | [2] > 30 µM | [3] > 30 µM | [4] > 30 µM | [5] > 30 µM

CCOc1cc2ncc(C#N)c(Nc3ccc(F)c(Cl)c3)c2cc1NC(=O)/C=C/CN(C)C [PELITINIB]
inactive: [1] > 30 µM | [2] > 30 µM | [3] > 30 µM | [4] > 30 µM | [7] > 30 µM | [5] > 30 µM

Cc1cnc(NC(=O)Nc2cc(Br)c(C)cc2OC[C@@H]2CNCCO2)cn1 [RABUSERTIB]
inactive: [6] > 30 µM | [1] > 30 µM | [3] > 30 µM | [4] > 30 µM | [7] > 30 µM | [5] > 30 µM

CO[C@H]1C[C@@H]2CC[C@@H](C)[C@@](O)(O2)C(=O)C(=O)N2CCCC[C@H]2C(=O)O[C@H]([C@H](C)C[C@@H]2CC[C@@H](OC(=O)C(C)(CO)CO)[C@H](OC)C2)CC(=O)[C@H](C)/C=C(\C)[C@@H](O)[C@@H](OC)C(=O)[C@H](C)C[C@H](C)/C=C/C=C/C=C/1C [TEMSIROLIMUS]
inactive: [6] > 30 µM | [1] > 30 µM | [2] > 30 µM | [3] > 30 µM | [4] > 30 µM | [7] > 30 µM | [5] > 30 µM
